Experiments:
[1] = Cmax in high fat fed healthy human skin at 400 mg, po bid after 1 day; assay type: ADME, organism-based, Zone of skin; design: dose 400 mg, route oral
[2] = Cmax in high fat fed healthy human skin at 400 mg, po bid after 8 days; assay type: ADME, organism-based, Zone of skin; design: dose 400 mg, route oral
[3] = AUC (0 to 12 hrs) in high fat fed healthy human plasma measured per ml of plasma at 400 mg, po bid after 1 day; assay type: ADME, organism-based; design: dose 400 mg, time < 12 hr, route oral
[4] = AUC (0 to 12 hrs) in high fat fed healthy human plasma measured per ml of plasma at 400 mg, po bid after 8 days; assay type: ADME, organism-based; design: dose 400 mg, time < 12 hr, route oral
Zone of skin [5] = assay: AUC (0 to 12 hrs) in high fat fed healthy human skin measured per gram of tissue at 400 mg, po bid after 1 day; assay type: ADME, organism-based; design: dose 400 mg, time < 12 hr, route oral; details: in vivo
Zone of skin [6] = assay: AUC (0 to 12 hrs) in high fat fed healthy human skin measured per gram of tissue at 400 mg, po bid after 8 days; assay type: ADME, organism-based; design: time < 12 hr, dose 400 mg, route oral; details: in vivo
[7] = AUC (0 to 24 hrs) in high fat fed healthy human plasma measured per ml of plasma at 400 mg, po bid after 1 day; assay type: ADME, organism-based; design: time < 24 hr, dose 400 mg, route oral
[8] = AUC (0 to 24 hrs) in high fat fed healthy human plasma measured per ml of plasma at 400 mg, po bid after 8 days; assay type: ADME, organism-based; design: time < 24 hr, dose 400 mg, route oral
Zone of skin [9] = assay: AUC (0 to 24 hrs) in high fat fed healthy human skin measured per gram of tissue at 400 mg, po bid after 1 day; assay type: ADME, organism-based; design: dose 400 mg, time < 24 hr, route oral; details: in vivo
Zone of skin [10] = assay: AUC (0 to 24 hrs) in high fat fed healthy human skin measured per gram of tissue at 400 mg, po bid after 8 days; assay type: ADME, organism-based; design: dose 400 mg, time < 24 hr, route oral; details: in vivo
[11] = T>MIC90 in fungus infected patient plasma at 400 mg, po bid after 1 day; assay type: functional
[12] = T>MIC90 in fungus infected patient plasma at 400 mg, po bid after 8 days; assay type: functional
[13] = T>MIC90 in fungus infected patient skin at 400 mg, po bid after 1 day; assay type: functional
[14] = T>MIC90 in fungus infected patient skin at 400 mg, po bid after 8 days; assay type: functional
Homo sapiens [15] = assay: Toxicity in healthy human assessed as treatment-emergent adverse events at 400 mg, po bid after 8 days; assay type: organism-based; details: in vivo, 192 h
Homo sapiens [16] = assay: Toxicity in healthy human assessed as treatment related treatment-emergent adverse events at 400 mg, po bid after 8 days; assay type: organism-based; details: in vivo, 192 h
[17] = Ratio of AUC in skin to plasma in healthy human at 400 mg, po bid after 8 days; assay type: ADME, organism-based, Skin of body; details: skin and plasma
[18] = Tmax in high fat fed healthy human plasma at 400 mg, po bid after 1 day; assay type: ADME, organism-based
[19] = Tmax in high fat fed healthy human skin at 400 mg, po bid after 1 day; assay type: ADME, organism-based, Zone of skin
[20] = Tmax in high fat fed healthy human skin at 400 mg, po bid after 8 days; assay type: ADME, organism-based, Zone of skin
[21] = Cmax in high fat fed healthy human plasma at 400 mg, po bid after 1 day; assay type: ADME, organism-based; design: dose 400 mg, route oral
[22] = Cmax in high fat fed healthy human plasma at 400 mg, po bid after 8 days; assay type: ADME, organism-based; design: dose 400 mg, route oral

In the case of CC[C@@H]([C@H](C)O)n1ncn(-c2ccc(N3CCN(c4ccc(OC[C@@H]5CO[C@@](Cn6cncn6)(c6ccc(F)cc6F)C5)cc4)CC3)cc2)c1=O [POSACONAZOLE], the Cmax [1] is reported as 328 ng/g, the Cmax [2] is reported as 2610 ng/g and the AUC at 12 h [3] is reported as 3630 ng·h/mL. The AUC at 12 h [4] was 18600 ng·h/mL, the AUC (Zone of skin [5]) was 1760 ng·h/g and the AUC (Zone of skin [6]) was 23400 ng·h/g. The AUC at 24 h [7] was 7260 ng·h/mL, the AUC at 24 h [8] was 37200 ng·h/mL and the AUC (Zone of skin [9]) was 3520 ng·h/g. The AUC (Zone of skin [10]) was 46800 ng·h/g, the “T>MIC90” value [11] was 8.13 h and the “T>MIC90” value [12] was 12 h. For the same molecule, the “T>MIC90” value [13] was 2.24 h, the “T>MIC90” value [14] was 12 h and the Activity (Homo sapiens [15]) was 57%. It also gave an Activity (Homo sapiens [16]) of 37%, a Kp at 192 h [17] of 1.26 and a Tmax [18] of 8 h. It also gave a Tmax [19] of 12 h, a Tmax [20] of 3 h and a Cmax [21] of 453 ng/mL. For the same molecule, the Cmax [22] was 1740 ng/mL.

Reference: ChEMBL document CHEMBL1255452, “Skin concentrations and pharmacokinetics of posaconazole after oral administration” (Antimicrob Agents Chemother, 2010)
